What was measured:
[1] = molecular target: holo-CaM; conditions: cited from earlier work
[2] = system: sheep erythrocytes; assay: Two-step CyaA intoxication assay with or without calmidazolium; format: cell-based; conditions: CyaA […] bound at 4 °C 30 min, 10 μM CDZ added just prior to shift from 4 to 37 °C; 2, 5, 10 min; three independent replicates
Method: (§1) T PCK-treated trypsin (Millipore Sigma, Burlington, MA, USA) for 10 min at 30°C to digest the adenylate cyclase that remained at the external surface of the erythrocytes. A 5-fold excess of soybean trypsin inhibitor was added and cells were washed with buffer A and lysed with 0.1% Tween 20. The activity protected from trypsin digestion corresponds to the internalized toxin. Activities are expressed as percentages of total toxin added to the erythrocytes (taken as 100%) and represent average values from at least three independent measurements. One unit of CyaA activity corresponds to 1 μmol of cAM P formed per min at 30°C and pH 8.0. The bound and internalized AC activities measured with the CyaA recombinant proteins were normalized to that of the WT CyaA toxin. […]
(§2) then resuspended in cold buffer A plus 2 mM CaCl2 and split in two fractions. […] After addition of soybean trypsin inhibitor, the cells were washed with buffer A then lysed with 0.1% Tween 20 and the internalized AC activity protected from trypsin digestion was measured and expressed as a percentage of bound AC activity. […]
(§3) Tryptophan fluorescence is used for the SEC profiles because this allows monitoring the […]

[3] = system: adenylate cyclase (AC384GK, catalytic domain of CyaA); assay: CaM-dependent adenylate cyclase activity with or without calmidazolium; format: biochemical, Bordetella pertussis; conditions: CDZ 10 µM, assayed in the presence of 1 µM CaM
Method: as §1, §2, §3
Figure S15: CaM-dependent activation of AC with or without calmidazolium (C D Z ) . […] Th e adenylate cyclase activity is expressed as mol of cAMP per sec per mol of AC384GK. […]

[4] = system: CaM; assay: Size exclusion chromatography of P454, H and AC364 with CaM in the presence of CDZ; format: binding; conditions: SEC, buffer B, CaM 15 µM, CDZ 40 µM, tryptophan fluorescence
Method: T PCK-treated trypsin (Millipore Sigma, Burlington, MA, USA) for 10 min at 30°C to digest the adenylate cyclase that remained at the external surface of the erythrocytes. A 5-fold excess of soybean trypsin inhibitor was added and cells were washed with buffer A and lysed with 0.1% Tween 20. The activity protected from trypsin digestion corresponds to the internalized toxin. Activities are expressed as percentages of total toxin added to the erythrocytes (taken as 100%) and represent average values from at least three independent measurements. One unit of CyaA activity corresponds to 1 μmol of cAM P formed per min at 30°C and pH 8.0. The bound and internalized AC activities measured with the CyaA recombinant proteins were normalized to that of the WT CyaA toxin.
For the CyaA intoxication experiments in the presence of calmidazolium (CDZ), in order to minimize the cell exposure to this potent CaM inhibitor, we performed a two-step intoxication assay as described originally by Rogel and Hanski 19. For this, the erythrocytes (5 x 10^8 cells/mL) were in a first step incubated with CyaA (1 μg/mL, 5.6 nM) in buffer A plus 2 mM CaCl2 at 4 °C for 30 min. In these conditions, the toxin can bind to the cell membrane but cannot translocate across membrane 19. […]
as §2
The SEC experiments were performed on a TSKgel G3000SW 7.5 mm ID * 30 cm - column equilibrated in buffer B at a flow rate of 0.6 mL/min at RT. The elution profiles were measured by absorbance at 280 nm, conductivity and by tryptophan fluorescence on a FP750 fluorometer (Ex.: 280 nm; Em.: 340 nm; bandwidths 10/10 nm ) equipped with a on -line cell .
as §3
weak fluorescence signal. […]
fluorescence signal. […]

[5] = Peptide titrations by SUVs followed by tryptophan fluorescence (solution-to-membrane partition); format: physicochemical
Procedure, shortened: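 Peptides were titrated with POPC:POPG (8:2) SUVs at 25°C, with tryptophan fluorescence excited at 280 nm and emission recorded 300–400 nm. The 330/370 nm intensity ratio, corrected for SUV baseline, was fitted to a partition model to obtain the solution-to-membrane partition coefficient KX.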

[6] = Sedimentation velocity analytical ultracentrifugation; format: physicochemical; conditions: 57 µM peptide alone, 20 °C, buffer B
Text: 400 nm at a scan rate of 100 nm/min, with an excitation wavelength of 280 nm. Fluorescence emission spectra were corrected for SUV or CaM baselines . Fluorescence intensity ratio at 330 nm over 370 nm was use d to measure the partition coefficient (K X) of peptides between the solution andmembrane s 1, 12 and the affinity (K d) of peptides for CaM 13.
Determination of partition coefficient KX and dissociation constant Kd from […]
The partition coefficient KX is defined as the ratio of protein in the lipid (PL) and in buffer […]
(PW) pha se s 12, 14, expressed by: KKXX = [LL ]? , giving[PPWW ] [PPWW ]= [WW], where [W] the […]
concentration of water (55.5 M) and [L] the lipid concentration. […]
The dissociation constant, Kd, is obtained from titration experiments of the P454-derived peptides by CaM and is expressed as follows: KK dd = [PP ]∗[CCCCCC ][PP:CCCCCC] , given KKdd[CCCCCC]= [PP ][PP :CCCCCC]and the fraction of complex, fP:CaM, i s: ffPP:CCCCCC = [PP :CCCCCC ][PP:CCCCCC]+[PP]= 11+ [PP ]= 11+ KKdd. […]
ratio 1:1 (at 70 µM each). […] Detection of protein concentration as a function of radial position and time was monitored with the ProteomeLab software (Beckman Coulter, […]
Brea, CA, USA) by both absorbance at 280 nm and interferometry. […] SV scans were analyzed using the continuous size distribution model c(s) of the software Sedfit 15. […]

[7] = Synchrotron radiation circular dichroism, alpha-helical content (Bestsel); format: physicochemical; conditions: 25 °C, far-UV SRCD
Method: Synchrotron Radiation Circular Dichroism
Synchrotron radiation circular dichroism (SRCD) was performed on the DISCO beamline of the synchrotron SOLEIL (Saint -Aubin, France) . Spectra were recorded at 25°C with an integration time of 1.2 s and a bandwidth of 1 nm with a resolution of 1 nm. A far-UV spectrum represents the average of four individual scans. QS cells (Hellma, France) with a pathlength of 20, 50, 100 or 200 μm (depending on final protein concentrations) were used to record spectra in the fa r -UV range (from 190 to 250 nm). CD spectra of peptides and proteins were measured in buffers A and B, 20% of trifluoroethanol (TFE), in the presence of SUVs (POPC :PO PG 8: 2) or Ca M. Secondary structure content was estimated using Bestsel software […]
Table S8: Estimation of the α -helical content of P454-derived peptides. The secondary structure content is estimated using the on-line Bestsel software 17 available at http://bestsel.elte.hu/index.php. […]
peptide in buffer A, in 20% TFE and in the presence of POPC POPG (molar ratio 8:2) at 2 mM lipid concentration. The far -UV CD spectra of several P454-derived peptides are shown […]

[8] = Membrane permeabilization of ANTS/DPX-loaded LUVs
Method: To monitor membrane permeabilization induced by peptides, ANTS (fluorophore probe) and
DPX (quencher) were encapsulated into large unilamellar vesicles (LUVs). The LUVs were
prepared at a concentration of 10 mM lipid at a POPC:PO PG molar ratio of 8:2 containing 20
mM ANTS and 60 mM DPX. The multilamellar vesicle suspension was extrudedthrough 0.4-
and 0.2 μm polycarbonate filters to produce LUVs. The unencapsulated ANT S a nd DPX we re
removed by gel filtration with a 5 mL Sephadex G -25 column (GE Healthcare Life Sciences ).
For permeabilization assays, LUVs were incubated in buffer A at 0.45 mM lipid
concentration at 25°C in a 101-QS cuvette (Hellma, France) and under constant stirring.
excitation wavelength was set at 390 nm and the emission of ANTS was continuously
measured at 515 nm. The maximum intensity of permeabilization, corresponding to the
maximum recovery of ANTS fluorescence, was measured after addition of 0.1% of Triton
X100. The concentration of membrane-bound peptide s required to induce the recovery of half
intensity of the ANTS fluorescence (C P1/2) was extracted from the permeabilization intensity
a s a function of peptide concentration 1.
LUVs were incubated in buffer B at a lipid concentration of 0.45 mM.
After a few seconds of permeabilization,
holo-Ca M wa s added t o t he solution at a peptide:Ca M molar ratio of 1:3. EDT A wa s
subsequently added in excess to chelate calcium and convert holo -CaM to apo -C a M .

Clc1ccc(C(c2ccc(Cl)cc2)n2cc[n+](CC(OCc3ccc(Cl)cc3Cl)c3ccc(Cl)cc3Cl)c2)cc1 (stereo not shown) [CDZ, Calmidazolium chloride]
Ki [1]: 0.01 to 0.05 µM
Amount of internalized AC with CDZ [2]: drastically reduced
Effect on AC enzymatic activity [3]: no inhibitory effect
Effect of CDZ on CaM association with the AC domain ([4]; AC364 10 µM): not with the AC domain
Effect of CDZ on the H:CaM complex ([4]; H 10 µM): partially inhibited
Effect of CDZ on CaM association with P454 ([4]; P454 10 µM): can specifically inhibit

CC[C@H](C)[C@H](NC(=O)[C@H](C)NC(=O)[C@H](Cc1c[nH]cn1)NC(=O)[C@@H](NC(=O)[C@H](CC(C)C)NC(=O)[C@H](CCCNC(=N)N)NC(=O)[C@H](CCC(N)=O)NC(=O)[C@H](C)NC(=O)[C@H](C)NC(=O)[C@H](C)NC(=O)[C@@H](NC(=O)[C@H](C)NC(=O)[C@H](CCC(N)=O)NC(=O)[C@H](C)NC(=O)CNC(=O)[C@H](CCC(N)=O)NC(=O)[C@H](CC(C)C)NC(=O)[C@H](C)NC(=O)[C@H](CCCNC(=N)N)NC(=O)[C@H](CCC(N)=O)NC(=O)CNC(=O)[C@H](Cc1c[nH]c2ccccc12)NC(=O)[C@H](Cc1c[nH]cn1)NC(=O)[C@H](C)NC(=O)[C@H](CO)NC(=O)[C@H](C)NC(C)=O)C(C)C)C(C)C)C(=O)N[C@@H](C)C(=O)N[C@@H](CC(C)C)C(=O)N[C@@H](CCSC)C(=O)N[C@H](C(=O)N[C@@H](CCC(N)=O)C(N)=O)[C@@H](C)O [P454]
Partition coefficient KX ([5]; POPC:POPG 8:2 SUVs, buffer A pH 7.4, 25 °C, tryptophan fluorescence ratio 330/370 nm, S.D. within ± 10%): 790 ×10^3
Partition coefficient Kx ([5]; POPC:POPG 8:2 membranes): 790 000
Kd ([5]; converted from KX: [W]/KX = Kd, [W] = 55.5 M, read-out: Kd for POPC:POPG 8:2): 70 µM
∆GKx for POPC POPG 8:2 ([5]; ∆GKx = -RT Ln Kx, S.D. within ± 10%): -8 kcal/mol
Sedimentation coefficient [6]: 0.65 S
alpha-helical content, TFE 20% ([7]; 20% TFE): 60 ± 2%
alpha-helical content, POPC:POPG 8:2 ([7]; SUVs POPC:POPG 8:2 at 2 mM lipid): 50 ± 1%
alpha-helical content, Solution ([7]; buffer A): 17 ± 2%
CP1/2, peptide concentration required to induce recovery of 50% of ANTS fluorescence intensity upon LUVs permeabilization ([8]; ANTS:DPX LUVs POPC:POPG 8:2, 0.45 mM lipid, buffer A pH 7.4, 25 °C, ex 390/em 515 nm, S.D. ± 5%): 0.07 µM
Effect of holo-CaM addition on peptide-induced vesicle permeabilization ([8]; LUVs 0.45 mM lipid, buffer B (2 mM CaCl2), peptide:CaM molar ratio 1:3): immediately stopped
